Experimental data: patent US9119396B2, “Method for promoting plant growth” (SUMITOMO CHEMICAL COMPANY, LIMITED, priority 2011, dated 2015)

Columns and labels:
Assay type in all cases: in vivo
[1] = test system: Corn (cultivar: Kuromochi); assay: Test Example 3: reduction of low-temperature stress by treatment of corn seeds; conditions: corn seed treatment, low-temperature stress 2.5±1° C. 4 days, then 4 days at 27° C.
Method: Evaluation Test for Reduction of Low-Temperature Stress by Treatment of Corn Seeds Corn (cultivar: Kuromochi) A blank slurry solution containing 10% (V/V) color coat red (Becker Underwood, Inc.), 10% (V/V) CF-Clear (Becker Underwood, Inc.) and 1.66% Maxim 4FS (Syngenta) was prepared. A slurry solution was prepared by dissolving the present compound 1 in the blank slurry solution such that 0.5 g, 5 g or 50 g of the compound is applied to each 100 kg of corn seeds. In a 50-ml centrifuge tube (manufactured by BD Japan), 0.35 ml of the slurry solution was placed for each 14.4 g of corn seeds and stirred until the solution was dried, thereby coating the seeds. In addition, seeds were coated with the blank slurry solution and used as seeds for a non-treated group. One of the treated corn seeds was sown in culture soil (AISAI) in each pot (55 mm in diameter×58 mm in height) and cultivated for 10 days under the conditions of a temperature of 27° C., an illuminance of 5,000 lux, and a day length of 16 hours. The grown seedlings were used for the test. The pots at 10 days after the sowing were placed into an artificial weather control room (VHT-2-15P-NC2-S, manufactured by Nippon Medical & Chemical Instruments Co., Ltd) and cultivated for 4 days under the following conditions: • temperature: 2.5±1° C., day length: 16 hours, and illuminance: 5,000 lux. <Evaluation Method> After the low-temperature stress treatment, the plants were cultivated for 4 days under the conditions of a temperature of 27° C., an illuminance of 5,000 lux, and a day length of 16 hours. Then, the fresh weight of the overground part of the plants was measured. The experiment was performed in five replications for each treatment condition and the average weight per individual was calculated. As a result, the fresh weight of the overground part of plants in the treated group of applying 0.5 g, 5 g or 50 g of the present compound 1 to each 100 kg of seeds was much heavier than that in the non-treated group.

[2] = test system: Rice (cultivar: Nipponbare); assay: Test Example 5: reduction of low-temperature stress by treatment of rice seeds; conditions: rice seed treatment, low-temperature stress 4° C. 5 days, then 12 days at 25° C.
Method: Evaluation Test for Reduction of Low-Temperature Stress by Treatment of Rice Seeds Rice (cultivar: Nipponbare) A blank slurry solution containing 5% (V/V) color coat red (Becker Underwood, Inc.), 5% (V/V) CF-Clear (Becker Underwood, Inc.) and 1% Maxim XL (Syngenta) was prepared. A slurry solution was prepared by dissolving the present compound 1 in the blank slurry solution such that 5 g or 50 g of the compound is applied to each 100 kg of rice seeds. In a 15-ml centrifuge tube (manufactured by AGC TECHNO GLASS CO., LTD.), 0.1 ml of the slurry solution was placed for each 3 g of rice seeds and stirred until the solution was dried, thereby coating the seeds. In addition, seeds were coated with the blank slurry solution and used as seeds for a non-treated group. A filter paper was placed on the bottoms of the holes of a plug tray having 406 holes, and the rice seeds treated above were sown on the filter paper. […] Twelve (12) days after the treatment, the fresh weight of the overground part of each plant was measured. The experiment was performed in four replications in each treated group and the average value was calculated. […]

Wheat (cultivar: Apogee) = assay: Test Example 10: reduction of high-temperature stress by spraying treatment of wheat; conditions: spray solution 1 ppm, high-temperature stress 36° C./32° C. 7 days, 90 days after the stress treatment
Method: Evaluation Test for Reduction of High-Temperature Stress by Spraying Treatment of Wheat
Five wheat seeds were sown in the culture soil (AISAI) in each plastic pot and cultivated for 28 days in an artificial weather control room under the conditions of a temperature of 18° C. in daytime/15° C. in night, and an illuminance of 7,000 lux. Before the stress test, 3 individuals per pot were removed.
To 0.5 mg of the present compound 1 were added 120 mg of a mixture (weight ratio 1:1) of white carbon and ammonium polyoxyethylene alkyl ether sulfate and 300 μl of water. The mixture was finely ground by a wet grinding method to obtain a flowable formulation of the present compound 1. This flowable formulation was diluted with 500 ml of water. The mixture was diluted with RINO (manufactured by NIHON NOHYAKU CO., LTD) as a spreading agent to 5,000-fold dilution to obtain a spray solution containing 1 ppm of the present compound 1. […]
After the high-temperature stress treatment, the plants were cultivated in an artificial weather control room under the conditions of a temperature of 18° C. in daytime/15° C. in night, and a illuminance of 7,000 lux. Then, 90 days after the high-temperature stress treatment, the number and the weight of seeds in ears of the tested plants in 7 or 8 pots were measured, and the average values of the number and the weight of seeds per one ear were calculated. […]

COC(=O)c1cc2cc(C(F)(F)F)ccc2s1 [compound 1]
much heavier: fresh weight of the overground part of plants vs non-treated group ([1]; 0.5 g per 100 kg of seeds) | fresh weight of the overground part of plants vs non-treated group ([1]; 5 g per 100 kg of seeds) | fresh weight of the overground part of plants vs non-treated group ([1]; 50 g per 100 kg of seeds) | fresh weight of the overground part of plants vs non-treated group ([2]; 5 g per 100 kg of seeds) | fresh weight of the overground part of plants vs non-treated group ([2]; 50 g per 100 kg of seeds)
much larger: number of seeds per one ear vs non-treated group (Wheat (cultivar: Apogee)) | weight of seeds per one ear vs non-treated group (Wheat (cultivar: Apogee))
